Results taken from patent US9073830B2 (Hyundai Pharm Co., Ltd., priority 2011, dated 2015).

How the values were obtained:
mouse 11β-HSD1 = biological target: T1, mouse 11β-HSD1 (Mus musculus, UniProt P50172); experiment: Enzyme activity analysis on mouse 11β-HSD1 (HTRF cortisol, liver microsomes); type: biochemical; conditions: second value of cell
T1 construct: 100 ug/ml human/mouse liver microsomes; from tissue; host or cells: mouse liver microsomes
Summary of the method: (§1)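 Cortisol generated by mouse or human liver microsome 11β-HSD1 during 2 h at 37° C., measured by HTRF competition (cryptate anti-cortisol antibody, d2-cortisol, 2 h room temperature) against a cortisol standard curve. IC50 from percent inhibition versus no-compound control.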

glucocorticoid receptor = biological target: T2, glucocorticoid receptor (Homo sapiens, UniProt P04150); experiment: Competitive binding of glucocorticoid receptor (LanthaScreen TR-FRET); conditions: final concentration 10 uM
T2 construct: 4× GR-LBD up to 4 nM, and 4× Tb anti-GST Antibody up to 8 nM; purchased Invitrogen PV6040
T2 sequence (P04150 524-758 limits assumed): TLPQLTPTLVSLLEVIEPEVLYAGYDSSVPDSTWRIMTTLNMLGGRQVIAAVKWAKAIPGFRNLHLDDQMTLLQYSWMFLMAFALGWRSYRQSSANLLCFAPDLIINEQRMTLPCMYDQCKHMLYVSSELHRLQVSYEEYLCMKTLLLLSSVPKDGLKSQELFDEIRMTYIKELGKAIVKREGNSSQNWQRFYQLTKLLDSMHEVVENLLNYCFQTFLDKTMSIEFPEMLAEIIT
Method: In order to confirm the selective inhibitory ability of 11β-HSD1 inhibitor, competitive binding between 11β-HSD1 inhibitor and glucocorticoid ligand was tested by using LanthaScreen TR-FRET Glucocorticoid Receptor Competitive Binding Assay (Invitrogen, PV6040). The test material was dissolved in DMSO (Sigma, 276855) up to a 100× concentration of its final concentration (10 uM), and then Complete Nuclear Receptor Buffer F (1× stabilizing peptide, 5 mM DTT, Nuclear Receptor Buffer F) was used to dilute the test material up to a concentration of 2×, 4× Fluormone™ GS1 Green up to 20 nM, 4× GR-LBD up to 4 nM, and 4× Tb anti-GST Antibody up to 8 nM.
In order to obtain 60 μl of a final product through a reaction, on a 96-well plate, 2× test material 30 μl, 4× Fluormone™ GS1 Green 15 μl, and 4× GR-LBD/Tb anti-GST Antibody 15 μl were mixed, and reacted for 1 hour. In a positive control group, instead of the test material, Dexamethasone (Sigma, D1756), known as a ligand for glucocorticoid receptor, was used, and in a maximum active control group, DMSO was used, instead of the test material. In a negative control group, instead of the test material, DMSO was used, instead of Fluormone™ GS1 Green, Complete Nuclear Receptor Buffer F was used. On a 384-well white plate, 20 μl each was plated. By using Time-Resolved program in Flexstation3, a fluorescence value was read after excitation ([…]), emission (515 nM/486 nM), Delay time (100 μs), and Integration time (1500 μs) were programmed. By using the obtained value, a value of 515 nM/486 nM was calculated, from which the value in the negative control group was subtracted. The degree of binding of the test material to glucocorticoid receptor of was calculated by the active value of the test material with respect to the active value (100%) in the maximum active control group.

human 11β-HSD1 = biological target: T3, human 11β-HSD1 (Homo sapiens, UniProt P28845); experiment: Enzyme activity analysis on human 11β-HSD1 (HTRF cortisol, liver microsomes); type: biochemical; conditions: first value of cell
T3 construct: 100 ug/ml human/mouse liver microsomes; from tissue; host or cells: human liver microsomes
Summary of the method: as §1

T3 sequence (P28845 whole entry): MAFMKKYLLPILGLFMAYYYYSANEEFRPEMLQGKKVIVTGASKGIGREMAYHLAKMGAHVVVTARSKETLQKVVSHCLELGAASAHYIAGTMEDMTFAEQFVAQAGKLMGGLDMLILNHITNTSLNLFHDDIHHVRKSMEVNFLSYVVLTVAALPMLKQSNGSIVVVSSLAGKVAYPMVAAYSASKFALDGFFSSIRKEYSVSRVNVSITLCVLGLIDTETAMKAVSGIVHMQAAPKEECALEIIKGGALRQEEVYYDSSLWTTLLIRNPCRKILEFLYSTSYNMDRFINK
T1 sequence (P50172 whole entry): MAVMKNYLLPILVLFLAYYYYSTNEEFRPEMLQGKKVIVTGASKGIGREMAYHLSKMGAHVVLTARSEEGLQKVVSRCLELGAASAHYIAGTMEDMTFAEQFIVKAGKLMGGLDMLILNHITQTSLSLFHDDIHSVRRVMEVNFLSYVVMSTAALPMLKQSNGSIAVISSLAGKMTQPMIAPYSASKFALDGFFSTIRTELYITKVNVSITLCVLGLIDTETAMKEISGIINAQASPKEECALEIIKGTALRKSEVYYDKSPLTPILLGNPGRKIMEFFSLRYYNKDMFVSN

For CC(C)(NS(=O)(=O)c1ccccc1[N+](=O)[O-])C(=O)NC1C2CC3CC(C2)CC1C3 (stereo not drawn) [compound 43, N-(adamantane-2-yl)-2-methyl-2-(2-nitrophenylsulfonamido)propanamide], the IC50 (mouse 11β-HSD1) was 0.085 µM, the “binding to glucocorticoid receptor” value (glucocorticoid receptor) was “did not bind to glucocorticoid receptor” and the IC50 (human 11β-HSD1) was 0.016 µM.
CC(C)(NS(=O)(=O)c1ccccc1Cl)C(=O)NC1C2CC3CC1CC(C(N)=O)(C3)C2 (stereo not drawn) [compound 83, N-4-(2-(2-chlorophenylsulfonamido)-2-methylpropanamido)adamantane-1-carboxyamide] was tested, and the IC50 (mouse 11β-HSD1) was 0.018 µM, the “binding to glucocorticoid receptor” value (glucocorticoid receptor) was “did not bind to glucocorticoid receptor” and the IC50 (human 11β-HSD1) was 0.009 µM.
For CC(C)(NS(=O)(=O)c1ccccc1F)C(=O)NC1C2CC3CC1CC(C(N)=O)(C3)C2 (stereo not drawn) [compound 85, N-4-(2-(2-fluorophenylsulfonamido)-2-methylpropanamido)adamantane-1-carboxyamide], the “binding to glucocorticoid receptor” value (glucocorticoid receptor) was “did not bind to glucocorticoid receptor” and the IC50 (human 11β-HSD1) was 0.039 µM.
In the case of CC(C)(NS(=O)(=O)c1c(F)cccc1F)C(=O)NC1C2CC3CC1CC(C(N)=O)(C3)C2 (stereo not drawn) [compound 89, N-4-(2-(2,6-difluorophenylsulfonamido)-2-methylpropanamido)adamantane-1-carboxyamide], the “binding to glucocorticoid receptor” value (glucocorticoid receptor) was “did not bind to glucocorticoid receptor”.
For CCN(C(C)(C)C(=O)NC1C2CC3CC1CC(C(N)=O)(C3)C2)S(=O)(=O)c1c(F)cccc1F (stereo not drawn) [compound 213, N-4-(2-(2,6-difluoro-N-ethylphenylsulfonamido)-2-methylpropanamido)adamantane-1-carboxyamide], the IC50 (mouse 11β-HSD1) was 0.235 µM and the IC50 (human 11β-HSD1) was 0.005 µM.
Compound CCN(C(C)(C)C(=O)NC1C2CC3CC1CC(C(N)=O)(C3)C2)S(=O)(=O)c1cccc(Cl)c1C (stereo not drawn) [compound 215] has an IC50 (mouse 11β-HSD1) of 0.284 µM and an IC50 (human 11β-HSD1) of 0.004 µM.
CCN(C(C)(C)C(=O)NC1C2CC3CC1CC(C(N)=O)(C3)C2)S(=O)(=O)c1ccccc1[N+](=O)[O-] (stereo not drawn) [compound 216] showed an IC50 (mouse 11β-HSD1) of 0.974 µM and an IC50 (human 11β-HSD1) of 0.009 µM.
Work on CCN(C(C)(C)C(=O)NC1C2CC3CC1CC(C(N)=O)(C3)C2)S(=O)(=O)c1ccccc1Cl (stereo not drawn) [compound 217] yielded an IC50 (mouse 11β-HSD1) of 0.098 µM and an IC50 (human 11β-HSD1) of 0.004 µM.
With CCCN(C(C)(C)C(=O)NC1C2CC3CC1CC(C(N)=O)(C3)C2)S(=O)(=O)c1ccccc1C(F)(F)F (stereo not drawn) [compound 218, N-4-(2-(2-trifluoromethyl-N-propylphenylsulfonamido)-2-methylpropanamido)adamantane-1-carboxyamide] the IC50 (mouse 11β-HSD1) was 0.462 µM and the IC50 (human 11β-HSD1) was 0.053 µM.
CC(C)(NS(=O)(=O)c1ccccc1N)C(=O)NC1C2CC3CC1CC(C(N)=O)(C3)C2 (stereo not drawn) [compound 219, N-4-(2-(2-aminophenylsulfonamido)-2-methylpropanamido)adamantane-1-carboxyamide] gave an IC50 (mouse 11β-HSD1) of 0.117 µM and an IC50 (human 11β-HSD1) of 0.085 µM.
With NC(=O)C12CC3CC(C1)C(NC(=O)C1(NS(=O)(=O)c4ccccc4N)CCCCC1)C(C3)C2 (stereo not drawn) [compound 220, N-4-(1-(2-aminophenylsulfonamido)cyclohexanecarboxyamido)adamantane-1-carboxyamide] the IC50 (mouse 11β-HSD1) was 0.266 µM and the IC50 (human 11β-HSD1) was 0.032 µM.
NC(=O)C12CC3CC(C1)C(NC(=O)C1(NS(=O)(=O)c4ccccc4N)CCC1)C(C3)C2 (stereo not drawn) [compound 221, N-4-(1-(2-aminophenylsulfonamido)cyclobutanecarboxyamido)adamantane-1-carboxyamide] showed an IC50 (mouse 11β-HSD1) of 0.151 µM and an IC50 (human 11β-HSD1) of 0.079 µM.
CN(C1(C(=O)NC2C3CC4CC2CC(C(N)=O)(C4)C3)CCC1)S(=O)(=O)c1ccccc1N (stereo not drawn) [compound 222, N-4-(1-(N-methyl-2-aminophenylsulfonamido)cyclobutanecarboxyamido)adamantane-1-carboxyamide] was tested, and the IC50 (mouse 11β-HSD1) was 0.004 µM and the IC50 (human 11β-HSD1) was 0.005 µM.
CN(C(C)(C)C(=O)NC1C2CC3CC1CC(C(N)=O)(C3)C2)S(=O)(=O)c1ccccc1N (stereo not drawn) [compound 223, N-4-(2-(2-amino-N-methylphenylsulfonamido)-2-methylpropanamido)adamantane-1-carboxyamide] gave an IC50 (mouse 11β-HSD1) of 0.023 µM and an IC50 (human 11β-HSD1) of 0.011 µM.
Compound CCN(C(C)(C)C(=O)NC1C2CC3CC1CC(C(N)=O)(C3)C2)S(=O)(=O)c1ccccc1N (stereo not drawn) [compound 224, N-4-(2-(2-amino-N-ethylphenylsulfonamido)-2-methylpropanamido)adamantane-1-carboxyamide] has an IC50 (mouse 11β-HSD1) of 0.154 µM and an IC50 (human 11β-HSD1) of 0.011 µM.
For CN(C(C)(C)C(=O)NC1C2CC3CC1CC(O)(C3)C2)S(=O)(=O)c1ccccc1N (stereo not drawn) [compound 225], the IC50 (mouse 11β-HSD1) was 0.083 µM and the IC50 (human 11β-HSD1) was 0.011 µM.
COc1ccccc1S(=O)(=O)NC(C)(C)C(=O)NC1C2CC3CC1CC(C(N)=O)(C3)C2 (stereo not drawn) [compound 226, 4-[2-(2-methoxy-benzenesulfonylamino)-2-methyl-propionylamino]-adamantane-1-carboxylic acid amide] was tested, and the IC50 (mouse 11β-HSD1) was 0.038 µM and the IC50 (human 11β-HSD1) was 0.062 µM.
Work on CCN(CC)C(=O)C12CC3CC(C1)C(NC(=O)C(C)(C)NS(=O)(=O)c1ccccc1Cl)C(C3)C2 (stereo not drawn) [compound 227, 4-[2-(2-chloro-benzenesulfonylamino)-2-methyl-propionylamino]-adamantane-1-carboxylic acid diethylamide] yielded an IC50 (mouse 11β-HSD1) greater than 2.5 µM and an IC50 (human 11β-HSD1) greater than 2.5 µM.
For CC(C)NC(=O)C12CC3CC(C1)C(NC(=O)C(C)(C)NS(=O)(=O)c1ccccc1Br)C(C3)C2 (stereo not drawn) [compound 228, 4-[2-(2-bromo-benzenesulfonylamino)-2-methyl-propionylamino]-adamantane-1-carboxylic acid isopropylamide], the IC50 (mouse 11β-HSD1) was greater than 2.5 µM and the IC50 (human 11β-HSD1) was greater than 2.5 µM.
Compound CC(C)(NS(=O)(=O)c1ccccc1Br)C(=O)NC1C2CC3CC1CC(C(=O)NC1CC1)(C3)C2 (stereo not drawn) [compound 229, 4-[2-(2-bromo-benzenesulfonylamino)-2-methyl-propionylamino]-adamantane-1-carboxylic acid cyclopropylamide] has an IC50 (mouse 11β-HSD1) greater than 2.5 µM and an IC50 (human 11β-HSD1) greater than 2.5 µM.
CC(C)(NS(=O)(=O)c1ccccc1Cl)C(=O)NC1C2CC3CC1CC(C(=O)NCCO)(C3)C2 (stereo not drawn) [compound 231, 4-[2-(2-chloro-benzenesulfonylamino)-2-methyl-propionylamino]-adamantane-1-carboxylic acid ethanolamide] gave an IC50 (mouse 11β-HSD1) greater than 2.5 µM and an IC50 (human 11β-HSD1) greater than 2.5 µM.
Work on O=C(NCCO)C12CC3CC(C1)C(NC(=O)C1(NS(=O)(=O)c4ccccc4Cl)CCC1)C(C3)C2 (stereo not drawn) [compound 232] yielded an IC50 (mouse 11β-HSD1) greater than 2.5 µM and an IC50 (human 11β-HSD1) greater than 2.5 µM.
CC(C)(NS(=O)(=O)c1ccccc1Cl)C(=O)NC1C2CC3CC1CC(C(=O)NC1CCCCC1)(C3)C2 (stereo not drawn) [compound 233, 4-[2-(2-chloro-benzenesulfonylamino)-2-methyl-propionylamino]-adamantane-1-carboxylic acid cyclohexylamide] gave an IC50 (mouse 11β-HSD1) greater than 2.5 µM and an IC50 (human 11β-HSD1) greater than 2.5 µM.
For CC(C)NC(=O)C12CC3CC(C1)C(NC(=O)C(C)(C)NS(=O)(=O)c1ccccc1Cl)C(C3)C2 (stereo not drawn) [compound 235, 4-[2-(2-chloro-benzenesulfonylamino)-2-methyl-propionylamino]-adamantane-1-carboxylic acid isopropylamide], the IC50 (mouse 11β-HSD1) was greater than 2.5 µM and the IC50 (human 11β-HSD1) was greater than 2.5 µM.
Compound CC(C)NC(=O)C12CC3CC(C1)C(NC(=O)C1(NS(=O)(=O)c4ccccc4Cl)CCC1)C(C3)C2 (stereo not drawn) [compound 236, 4-({1-[(2-chloro-benzenesulfonyl)-methyl-amino]-cyclobutanecarbonyl}-amino)-adamantane-1-carboxylic acid-isopropylamide] has an IC50 (mouse 11β-HSD1) greater than 2.5 µM and an IC50 (human 11β-HSD1) greater than 2.5 µM.
CNC(=O)C12CC3CC(C1)C(NC(=O)C(C)(C)NS(=O)(=O)c1ccccc1Cl)C(C3)C2 (stereo not drawn) [compound 237, 4-[2-(2-chloro-benzenesulfonylamino)-2-methyl-propionylamino]-adamantane-1-carboxylic acid methylamide] showed an IC50 (mouse 11β-HSD1) of 0.437 µM and an IC50 (human 11β-HSD1) of 1.5 µM.
CNC(=O)C12CC3CC(C1)C(NC(=O)C1(NS(=O)(=O)c4ccccc4Cl)CCC1)C(C3)C2 (stereo not drawn) [compound 238] showed an IC50 (mouse 11β-HSD1) greater than 2.5 µM and an IC50 (human 11β-HSD1) greater than 2.5 µM.
With “N-4-(2-methoxy-6-fluoro-N-ethylphenylsulfonamido)-2-methylpropanamido)adamantane-1-carboxyamide [compound 214]” the IC50 (mouse 11β-HSD1) was 0.006 µM and the IC50 (human 11β-HSD1) was 0.012 µM.
